ChEMBL document CHEMBL3885861, “Open TG-GATES”

Species: Rattus norvegicus
Experiment: Open TG-GATES - Regimen: Daily Repeat
Assay type: toxicity, organism-based, Sprague-Dawley
Design: regimen Daily Repeat, gender Male, age 6 weeks
Details: in vivo, po, route gavage; for Bas / Eos / Fbg / Ht / MCHC / Mono / Plat / RBC / Ret / WBC / MCV: tissue Blood; for KIDNEY_L / KIDNEY_R / KIDNEY_TOTAL: tissue Kidney; for ALT / AST / CRE / DBIL / GLC / IP / K / LDH / PL / RALB / TBIL / TC / TG / TP / gamma-GTP: tissue Plasma
[1] = 0 mg/kg, 72 h, dose level Control, time 3 day
[2] = 0 mg/kg, […], dose level Control, time 7 day
[3] = 0 mg/kg, […], dose level Control, time 14 day
[4] = 0 mg/kg, […], dose level Control, time 28 day
[5] = 10 mg/kg, 72 h, dose level Low, time 3 day
[6] = 10 mg/kg, […], dose level Low, time 7 day
[7] = 10 mg/kg, […], dose level Low, time 14 day
[8] = 10 mg/kg, […], dose level Low, time 28 day

## CC(C)OC(=O)C(C)(C)Oc1ccc(C(=O)c2ccc(Cl)cc2)cc1 [FENOFIBRATE]
[1]
  TERMINAL_BW: 218.5 g
  Bas: 0.2%
  Eos: 1.2%
  Fbg: 275 mg/dL
  Ht: 39.9%
  MCHC: 33%
  Mono: 3.2%
  Plat: 108.4 x10_4/uL
  RBC: 625.4 x10_4/ul
  Ret: 7.7%
  WBC: 80.3 x10_2/uL
  KIDNEY_L: 1 g
  KIDNEY_R: 0.9 g
  KIDNEY_TOTAL: 1.9 g
  ALT: 44.4 IU/L
  AST: 69 IU/L
  CRE: 0.2 mg/dL
  DBIL: 0.014 mg/dL
  GLC: 180.4 mg/dL
  IP: 8.3 mg/dL
  K: 4.3 meq/L
  LDH: 75.2 IU/L
  PL: 150.2 mg/dL
  RALB: 2.6 g/dL
  TBIL: 0.042 mg/dL
  TC: 76.8 mg/dL
  TG: 86 mg/dL
  TP: 5.6 g/dL
  gamma-GTP: 1.2 IU/L
[2]
  TERMINAL_BW: 254.4 g
  Bas: 0%
  Eos: 1%
  Fbg: 310.4 mg/dL
  Ht: 41.5%
  MCHC: 32.7%
  Mono: 2.8%
  Plat: 113.6 x10_4/uL
  RBC: 650 x10_4/ul
  Ret: 6.1%
  WBC: 94.9 x10_2/uL
  KIDNEY_L: 1.1 g
  KIDNEY_R: 1.1 g
  KIDNEY_TOTAL: 2.1 g
  ALT: 47.8 IU/L
  AST: 72.2 IU/L
  CRE: 0.2 mg/dL
  DBIL: 0.012 mg/dL
  GLC: 187.8 mg/dL
  IP: 7.9 mg/dL
  K: 4.3 meq/L
  LDH: 89.6 IU/L
  PL: 147.8 mg/dL
  RALB: 2.7 g/dL
  TBIL: 0.036 mg/dL
  TC: 72.2 mg/dL
  TG: 122.6 mg/dL
  TP: 5.8 g/dL
  gamma-GTP: 1 IU/L
[3]
  TERMINAL_BW: 310.8 g
  Bas: 0%
  Eos: 1%
  Fbg: 309.8 mg/dL
  Ht: 43.2%
  MCHC: 33.2%
  Mono: 2.2%
  Plat: 111 x10_4/uL
  RBC: 692.6 x10_4/ul
  Ret: 4.5%
  WBC: 81.5 x10_2/uL
  KIDNEY_L: 1.2 g
  KIDNEY_R: 1.2 g
  KIDNEY_TOTAL: 2.4 g
  ALT: 40.8 IU/L
  AST: 65.8 IU/L
  CRE: 0.2 mg/dL
  DBIL: 0.014 mg/dL
  GLC: 188.2 mg/dL
  IP: 7.5 mg/dL
  K: 4.3 meq/L
  LDH: 106.6 IU/L
  PL: 144.8 mg/dL
  RALB: 2.7 g/dL
  TBIL: 0.038 mg/dL
  TC: 64.6 mg/dL
  TG: 188 mg/dL
  TP: 5.9 g/dL
  gamma-GTP: 1 IU/L
[4]
  TERMINAL_BW: 390.8 g
  Bas: 0.4%
  Eos: 1.2%
  Fbg: 270.6 mg/dL
  Ht: 45.9%
  MCHC: 33.9%
  MCV: 59.2 fL
  Mono: 2.2%
  Plat: 101.9 x10_4/uL
  RBC: 774.4 x10_4/ul
  Ret: 2.5%
  WBC: 107.1 x10_2/uL
  KIDNEY_L: 1.3 g
  KIDNEY_R: 1.3 g
  KIDNEY_TOTAL: 2.5 g
  ALT: 40.2 IU/L
  AST: 65.8 IU/L
  CRE: 0.2 mg/dL
  DBIL: 0.012 mg/dL
  GLC: 186 mg/dL
  IP: 7.1 mg/dL
  K: 3.6 meq/L
  LDH: 90 IU/L
  PL: 142 mg/dL
  RALB: 2.8 g/dL
  TBIL: 0.042 mg/dL
  TC: 71.4 mg/dL
  TG: 117.8 mg/dL
  TP: 6.3 g/dL
  gamma-GTP: 1.2 IU/L
[5]
  TERMINAL_BW: 221.1 g
  Bas: 0.4%
  Eos: 1.4%
  Fbg: 269.8 mg/dL
  Ht: 39.2%
  MCHC: 33.1%
  Mono: 3%
  Plat: 113.1 x10_4/uL
  RBC: 620.2 x10_4/ul
  Ret: 7.2%
  WBC: 80.5 x10_2/uL
  KIDNEY_L: 1 g
  KIDNEY_R: 1 g
  KIDNEY_TOTAL: 2 g
  ALT: 49 IU/L
  AST: 76.6 IU/L
  CRE: 0.2 mg/dL
  DBIL: 0.012 mg/dL
  GLC: 182.8 mg/dL
  IP: 8.3 mg/dL
  K: 4.1 meq/L
  LDH: 74 IU/L
  PL: 148.8 mg/dL
  RALB: 2.6 g/dL
  TBIL: 0.04 mg/dL
  TC: 80.4 mg/dL
  TG: 52.4 mg/dL
  TP: 5.6 g/dL
  gamma-GTP: 1.2 IU/L
[6]
  TERMINAL_BW: 253.9 g
  Bas: 0.2%
  Eos: 1%
  Fbg: 280.8 mg/dL
  Ht: 41%
  MCHC: 33.1%
  Mono: 2.2%
  Plat: 136.5 x10_4/uL
  RBC: 646.8 x10_4/ul
  Ret: 6.2%
  WBC: 99.8 x10_2/uL
  KIDNEY_L: 1.1 g
  KIDNEY_R: 1.1 g
  KIDNEY_TOTAL: 2.1 g
  ALT: 45.2 IU/L
  AST: 72.8 IU/L
  CRE: 0.2 mg/dL
  DBIL: 0.01 mg/dL
  GLC: 187.2 mg/dL
  IP: 8.1 mg/dL
  K: 4.4 meq/L
  LDH: 101.2 IU/L
  PL: 131.8 mg/dL
  RALB: 2.7 g/dL
  TBIL: 0.026 mg/dL
  TC: 65.6 mg/dL
  TG: 74.2 mg/dL
  TP: 5.8 g/dL
  gamma-GTP: 1 IU/L
[7]
  TERMINAL_BW: 314.5 g
  Bas: 0%
  Eos: 1%
  Fbg: 309.6 mg/dL
  Ht: 42.6%
  MCHC: 33.5%
  Mono: 3%
  Plat: 123.9 x10_4/uL
  RBC: 687.6 x10_4/ul
  Ret: 4.5%
  WBC: 88.4 x10_2/uL
  KIDNEY_L: 1.3 g
  KIDNEY_R: 1.3 g
  KIDNEY_TOTAL: 2.6 g
  ALT: 39.8 IU/L
  AST: 64 IU/L
  CRE: 0.2 mg/dL
  DBIL: 0.014 mg/dL
  GLC: 193.2 mg/dL
  IP: 7.7 mg/dL
  K: 4.3 meq/L
  LDH: 84 IU/L
  PL: 132.4 mg/dL
  RALB: 2.7 g/dL
  TBIL: 0.03 mg/dL
  TC: 57.2 mg/dL
  TG: 124.8 mg/dL
  TP: 6 g/dL
  gamma-GTP: 0.8 IU/L
[8]
  TERMINAL_BW: 385.8 g
  Bas: 0%
  Eos: 1.2%
  Fbg: 267 mg/dL
  Ht: 44.6%
  MCHC: 33.7%
  MCV: 57.9 fL
  Mono: 2.4%
  Plat: 105.5 x10_4/uL
  RBC: 770.4 x10_4/ul
  Ret: 2.1%
  WBC: 88.4 x10_2/uL
  KIDNEY_L: 1.5 g
  KIDNEY_R: 1.5 g
  KIDNEY_TOTAL: 2.9 g
  ALT: 40.2 IU/L
  AST: 63.2 IU/L
  CRE: 0.2 mg/dL
  DBIL: 0.01 mg/dL
  GLC: 187.6 mg/dL
  IP: 7.2 mg/dL
  K: 4.2 meq/L
  LDH: 101.6 IU/L
  PL: 136.2 mg/dL
  RALB: 2.8 g/dL
  TBIL: 0.028 mg/dL
  TC: 64.6 mg/dL
  TG: 100 mg/dL
  TP: 6.4 g/dL
  gamma-GTP: 1 IU/L
